Assay results as given in publication PMC10531093, “First-Generation Synthetic Cathinones Produce Arrhythmia in Zebrafish Eleutheroembryos: A New Approach Methodology for New Psychoactive Substances Cardiotoxicity Evaluation” (International Journal of Molecular Sciences, 2023).
Where two headings read alike, the source gives them in different places.

Columns and labels:
Type in all cases: in vivo, Danio rerio
zebrafish embryos [1] = assay: Chamber-specific heart rate (atrium, ventricle) after 2 h exposure, video recording; details: for EC50: Danio rerio, 4 dpf; for Lowest concentration inducing ventricular bradycardia (LOAEC): significant decrease in ventricular heart rate
Procedure: (§1) Experiments were conducted to assess lethality after 24 h exposure and quantify drug-induced effects on heart rate after 2 h exposure. Experiments were performed on day 4 of zebrafish development (4 dpf). On the day of the experiment, eleutheroembryos (hereafter embryos) were distributed into a 6-well plate (Thermo-Fisher Scientific, Madrid, Spain) by adding 12 embryos into each well with 5 mL of test solution. Embryos were exposed by immersion at 20 min intervals so that they could be mounted individually by ensuring equal exposure times in all groups. Each drug was tested at different concentrations (ranging from 1 to 1000 µM) in parallel with a control group (Goods buffer TAPS alone). The concentration range used was based on previous experiments with MDMA [58].
(§2) To avoid the movement of zebrafish embryos during recording, embryos were anesthetized by adding tricaine to exposure medium (0.08 mg/mL) and mounted in 3% methylcellulose (without tricaine) on double depression slides (Paul Marienfeld GmbH & Co. KG, Lauda-Königshofen, Germany) after drug exposure time. […] The slide was then transferred to an inverted light microscope (Nikon eclipse TS100, at 400×/N.A. 0.55, Nikon Instruments Inc., Amsterdam, The Netherlands) fitted with a high-speed video camera (Exilim, CASIO, Shibuya City, Japan). Sequential images of the heart (240 frames per second (fps)) were obtained with the embryo positioned on its side from the lateral position and with a duration of 10 s. Embryos were recorded one at a time, and all experiments were consistently conducted at the same time of day, controlling room temperature variation throughout video recordings.
To quantify atrial and ventricular heart rates in zebrafish, video recordings were analyzed with ImageJ v.1.53t. A plot of dynamic pixels was obtained by selecting an area of the heart ventricle or atrium with a high deviation of pixel intensity by means of the z-projection function (see Figure S4 for representative selection of heart ventricle and atrium area). The frequency as frames/beat was obtained by analyzing the waveform of dynamic pixels by the Fast Fourier Transform algorithm (FFT) using the “spectrum” function in R. Then, the resulting periodogram provides frequency information in cycles per frame, so to calculate the heart rate frequency (beats/min, bpm), the frequency values were multiplied by the frame rate (240 fps) to convert cycles per frame to cycles per second (Hz) and then multiplied by 60 to convert from Hz to bpm.
(§3) Concentration–response curves were derived from 2 h exposures and the 24 h acute toxicity test as effective concentrations 50 (EC50) and lethal concentrations 50 (LC50), respectively. Concentration–response curves were obtained with a sigmoidal concentration–response equation (Hill equation) using the package drc in R software (v.R-3.6.1).
(§4) Statistical analyses were conducted using GraphPad Prism 9 software. For all endpoints reported as means of mean values, data were considered to have a normal distribution according to the central limit theorem (by which means of random samples from any distribution will themselves have a normal distribution). Statistical comparison was performed by two-way ANOVA, followed by Tukey’s test, which was conducted to assess the effect of concentration and chamber (atrium–ventricle) on heart frequency or AI. Fisher’s Exact test was used for the statistical analysis of the proportion of embryos showing AV block and ventricular fibrillation. Students t-test was used to analyze the ventricular beat rate of zebrafish embryos exposed to the Cm.

zebrafish embryos [2] = assay: AV block 2:1 and ventricular fibrillation after 2 h exposure
Procedure: as §1, §2, §4

[3] = Twenty-four-hour acute toxicity test (lethality and abnormalities, 4 to 5 dpf); set-up: Embryos with spasms: dose or concentration left out as unconfirmed; details: zebrafish (Danio rerio), in vivo, other: immersion in test solution; 24 h exposure, 4 to 5 dpf, TAPS buffer pH 8.6; read-out: LC50 (CI95)
Procedure: as §1
(§5) Embryos at 4 dpf were distributed to 6-well plates, and 10 embryos were placed into each well with 5 mL of drug test solution. Plates were incubated at 26 ± 1 °C under a 14:10 light:dark cycle for 24 h. Following 24 h exposure, endpoints used for assessing lethality (coagulation or lack of heartbeat) and morphological/functional abnormalities were recorded for each treatment group. Each drug was tested at different concentrations, and at least three independent experiments were performed.
as §3

zebrafish embryos [4] = assay: as above; set-up: Embryos with spasms: dose or concentration left out as unconfirmed; details: 24 h exposure between 4 and 5 dpf; for Drug-induced abnormalities: all tested concentrations
Procedure: as §1, §5, §3

zebrafish embryos [5] = assay: Arrhythmicity index (AI, heart rate variability) after 2 h exposure; details: 500 µM
Procedure: as §1
To avoid the movement of zebrafish embryos during recording, embryos were anesthetized by adding tricaine to exposure medium (0.08 mg/mL) and mounted in 3% methylcellulose (without tricaine) on double depression slides (Paul Marienfeld GmbH & Co. KG, Lauda-Königshofen, Germany) after drug exposure time. […] Embryos were recorded one at a time, and all experiments were consistently conducted at the same time of day, controlling room temperature variation throughout video recordings.
Heartbeat variability was determined by analysis of the interbeat intervals (heart period) (see Figure 7), similar to the analysis described in [61]. […]

zebrafish embryos [6] = assay: Tachycardic effects: beat rate after 10 min exposure at 10 µM, and ventricular beat rate at Cm after 2 h
[7] = atrial bradycardia, read-out: EC50 (CI95) ATRIUM heart rate
[8] = ventricular bradycardia, read-out: EC50 (CI95) VENTRICLE heart rate

What does the source list for `CNC(C)C(=O)c1ccc(C)cc1` (stereo not shown) [Mephedrone, mephedrone]?
EC50 (zebrafish embryos [1]; [7]): 601 µM; EC50 (zebrafish embryos [1]; [8]): 403 µM; Lowest concentration inducing ventricular bradycardia (LOAEC) (zebrafish embryos [1]): 250 µM; Lowest concentration provoking AV block (zebrafish embryos [2]): 500 µM; LC50 at 24 h [3]: 147 µM; Drug-induced abnormalities (zebrafish embryos [4]): No abnormalities observed

For `COC(=O)[C@H]1[C@@H](OC(=O)c2ccccc2)C[C@@H]2CC[C@H]1N2C` [Cocaine, cocaine], which EC50 (zebrafish embryos [1]; [7]) is on record?
The EC50 was greater than 500 µM.

And the EC50 (zebrafish embryos [1]; [8])?
Its EC50 is 97.2 µM.

What about the “Lowest concentration inducing ventricular bradycardia (LOAEC)” value (zebrafish embryos [1]) of the same compound?
Its value is 50 µM.

And the “Lowest concentration provoking AV block” value (zebrafish embryos [2])?
The value was 50 µM.

And the “Embryos with ventricular fibrillation” value (zebrafish embryos [2]; 500 µM)?
The value was “all embryos”.

And the Ventricle heartbeat (zebrafish embryos [5])?
Its Ventricle heartbeat is “no ventricle heartbeat”.

What about the “Beat rate after shorter exposure time” value (zebrafish embryos [6]) of the same compound?
The value was “significantly increased beat rates”.

What about the LC50 at 24 h [3] of the same compound?
Its LC50 at 24 h is 173 µM.

And the Drug-induced abnormalities (zebrafish embryos [4])?
The Drug-induced abnormalities was “No abnormalities observed”.

For `CCCC(C(=O)c1ccc2c(c1)OCO2)N1CCCC1` (stereo not shown) [MDPV, 3,4-methylenedioxy-pyrovalerone], which “Fold more potent in inducing bradycardia in the ventricle than in the atria (EC50)” value (zebrafish embryos [1]) is on record?
The value was 3.4 fold.

What about the EC50 (zebrafish embryos [1]; [7]) of the same compound?
The EC50 was 110 µM.

What about the EC50 (zebrafish embryos [1]; [8]) of the same compound?
Its EC50 is 32.7 µM.

What about the “Lowest concentration inducing ventricular bradycardia (LOAEC)” value (zebrafish embryos [1]) of the same compound?
Its value is 20 µM.

What about the “Lowest concentration provoking AV block” value (zebrafish embryos [2]) of the same compound?
The value was 20 µM.

And the “Embryos with ventricular fibrillation (AV ratio > 2.5)” value (zebrafish embryos [2]; 50 µM)?
The value was “more than half of the embryos tested”.

And the LC50 at 24 h [3]?
The LC50 at 24 h was 135 µM.

And the Embryos with spasms (zebrafish embryos [4])?
Its Embryos with spasms is 21%.

What does the source list for `CNC(C)Cc1ccc2c(c1)OCO2` (stereo not shown) [MDMA, 3,4-methylenedioxy-methamphetamine]?
EC50 (zebrafish embryos [1]; [7]): 500 µM; EC50 (zebrafish embryos [1]; [8]): 418 µM; Lowest concentration inducing ventricular bradycardia (LOAEC) (zebrafish embryos [1]): 250 µM; Lowest concentration provoking AV block (zebrafish embryos [2]): 500 µM; LC50 at 24 h [3]: 180 µM

For `CNC(C)C(=O)c1ccc2c(c1)OCO2` (stereo not shown) [Methylone, methylone], which EC50 (zebrafish embryos [1]; [7]) is on record?
The EC50 was greater than 1000 µM.

And the EC50 (zebrafish embryos [1]; [8])?
The EC50 was 522 µM.

What about the “Lowest concentration inducing ventricular bradycardia (LOAEC)” value (zebrafish embryos [1]) of the same compound?
Its value is 250 µM.

What about the “Lowest concentration provoking AV block” value (zebrafish embryos [2]) of the same compound?
The value was 250 µM.

And the LC50 at 24 h [3]?
The LC50 at 24 h was 127 µM.

And the Drug-induced abnormalities (zebrafish embryos [4])?
Its Drug-induced abnormalities is “No abnormalities observed”.
